Data as given in patent publication US7491415B2 (priority 2005, dated 2009).
In brackets after ≈: the same amount, converted by molar mass. Several values for one entry are separate records, joined by “and”; a condition that tells them apart may be missing. Equal values may be shown once. Read-outs that look alike come from different tables or passages of the source.

Experiments:
Magnaporthe grisea [1] = assay: microbe, parasite or virus in culture; assay type: cell-based; conditions: Pyricularia oryzae
Rhizoctonia solani = assay: microbe, parasite or virus in culture; assay type: cell-based
Puccinia recondita = assay type: in vivo
Botrytis cinerea = assay: microbe, parasite or virus in culture; assay type: cell-based
Corticium sasaki = assay type: in vivo; conditions: after 8 days
Magnaporthe grisea [2] = assay type: in vivo; conditions: RCB rice blast, infected leaf area after 7 days
Pythium ultimum = assay: microbe, parasite or virus in culture; assay type: cell-based; conditions: Globisporangium ultimum
Phytophthora infestans = assay type: in vivo; conditions: for In vivo control values: TLB tomato late blight, after 4 days
Fusarium oxysporum = assay: microbe, parasite or virus in culture; assay type: cell-based
[3] = tested on: Colletotrichum lagenarium; assay: microbe, parasite or virus in culture; assay type: cell-based; conditions: Colletotrichum orbiculare
Alternaria kikuchiana = assay: microbe, parasite or virus in culture; assay type: cell-based
ICR mice = assay: Acute toxicity test, oral, mice; assay type: in vivo
Description: (§1) To perform an acute toxicity test of Chloranthus henryi extract and the sesquiterpene compound of formula (1), 6-week-old ICR mice (♂, 25 g, Korean Bio Corp.) were divided into 4 groups with two mice per each group, and raised under the condition of 22±3° C., 55±10% (humidity), 12L/12D (intensity of illumination). The mice were adapted for 1 week, and freely fed with foods for test animals (Jeil Feed Corp., Korea, for mouse and rat) and sterilized water.
(§2) Chloranthus henryi extract and the sesquiterpene compound of formula (1) were dissolved in a small amount of dimethyl sulfoxide (DMSO), and diluted with 1% carboxylmethyl cellulose. Four groups of mice were orally administered with 540 mg/kg, 180 mg/kg, 60 mg/kg and 20 mg/kg, respectively. Control group was administered with 1% carboxylmethyl cellulose. For 7 days after the administration, the presence of side effects or mortality was observed as follows. […] The changes in clinical signs and mortality of animals after administration were observed twice everyday for 7 days, i.e., in the morning and in the afternoon.
(§3) Further, the internal organs of the dead mice were examined through macroscopic observation after necropsy on the 7th day. The change in body weight of animals by Chloranthus henryi extract and sesquiterpene compound of formula (1) was observed everyday after administration.

[4] = Acute toxicity test, oral, mice; assay type: in vivo; conditions: male, mouse, in vivo, ICR mice, single administration, 7 days observation
Description: as §1, §2, §3

SMILES: C/C=C(\C)C(=O)OC[C@]1(O)[C@H]2C[C@H]2[C@]2(C)[C@@H]3CC4=C5[C@H](/C(=C(\C)C(=O)OC)C(=O)[C@H](O)[C@@]5(C)[C@@H]5C[C@H]45)[C@@]34OC(=O)C(COC(C)=O)=C4C[C@@H]12 [CHE-23C]
- MIC (Magnaporthe grisea [1]): 4 µg/mL (≈ 5.91 µM)
- MIC (Rhizoctonia solani): 16 µg/mL (≈ 23.6 µM)
- In vivo control values (Puccinia recondita; after 7 days): 100% and 87% and 80%
- control values in the greenhouse experiments (in words) (Puccinia recondita; in vivo): potent control values
- MIC (Botrytis cinerea): 8 µg/mL (≈ 11.8 µM)
- In vivo control values (Corticium sasaki): 69% and 50%
- In vivo control values (Magnaporthe grisea [2]; 11 ppm spray): 67%
- In vivo control values (Magnaporthe grisea [2]; 33 ppm spray): 50%
- In vivo control values (Magnaporthe grisea [2]; 100 ppm spray): 72%
- MIC (Pythium ultimum): 1 µg/mL (≈ 1.48 µM)
- control values in the greenhouse experiments (in words) (Phytophthora infestans; Phytophthora infestans, greenhouse): potent control values
- In vivo control values (Phytophthora infestans; 11 ppm spray): 29%
- In vivo control values (Phytophthora infestans; 33 ppm spray): 91%
- In vivo control values (Phytophthora infestans; 100 ppm spray): 93%
- MIC (Fusarium oxysporum): 16 µg/mL (≈ 23.6 µM)
- MIC [3]: 8 µg/mL (≈ 11.8 µM)
- MIC (Alternaria kikuchiana): 8 µg/mL (≈ 11.8 µM)
- mortality in the maximum dosage group (ICR mice; 540 mg/kg, 7 days): all the mice in the maximum dosage group (540 mg/kg) survived
- gross findings caused by the test materials (ICR mice; 20-540 mg/kg, all treated groups, necropsy on the 7th day): no significant gross findings
- LD50 at 7 days [4]: > 540 mg/kg
